Data: patent US10016343B2, “Solid stick antiperspirant compositions” (The Procter & Gamble Company, priority 2013, dated 2018)

Test: Hygroscopicity (equilibrium moisture pick up) of antiperspirant active
Format: physicochemical
Details: 86% RH, 20° C., 5 days
Protocol: One way to evaluate the hygroscopic nature of an antiperspirant active is to determine the equilibrium moisture pick up of the active after 5 days in a controlled relative humidity environment. Specific humidity chambers can be created placing saturated salt solutions in desiccators at a specific temperature. Different salts are used to create different humidities, for example potassium chloride can be used to make an 86% relative humidity (RH) environment at 20° C. In general there is an increase in moisture pick up as humidity is increased for the antiperspirant actives shown, however there are clear differences in slope and amount of moisture pick up at high humidity. Materials with higher slope and larger increases at high humidity (i.e. 86% RH) are considered to be more hygroscopic. The aluminum zirconium trichlorohydrate active (metal to chloride ratio=1.6) from Inventive Example 1 is the least hygroscopic (28% moisture pick up at 86% RH) with the aluminum zirconium tetrachlorohydrate active (metal to chloride ratio=1.2) being substantially more hygroscopic (40% moisture pick up at 86% RH). […] This may explain the substantial difference observed in the amount of sweat measured between Inventive Examples 1 and 2. […]

moisture pick up (hygroscopicity)	Substance
40%	aluminum zirconium tetrachlorohydrate
28%	aluminum zirconium trichlorohydrate
